How the values were obtained:
Format in all cases: biochemical
JAK2 = target: T1, JAK2 (Homo sapiens, UniProt O60674); assay: JAK2 inhibition (Table 4); details: read-out: JAK2 Ki
T1 construct: made in house; host or cells: SF9 insect cells (baculovirus)

JAK3 = target: T2, JAK3 (Homo sapiens, UniProt P52333); assay: JAK3 inhibition (Table 4); details: read-out: JAK3 Ki
T2 construct: made in house; host or cells: SF9 insect cells (baculovirus)

TYK2 = target: T3, TYK2 (Homo sapiens, UniProt P29597); assay: TYK2 inhibition (Table 4)
T3 construct: made in house; host or cells: SF9 insect cells (baculovirus)
T3 sequence (P29597 873-1187): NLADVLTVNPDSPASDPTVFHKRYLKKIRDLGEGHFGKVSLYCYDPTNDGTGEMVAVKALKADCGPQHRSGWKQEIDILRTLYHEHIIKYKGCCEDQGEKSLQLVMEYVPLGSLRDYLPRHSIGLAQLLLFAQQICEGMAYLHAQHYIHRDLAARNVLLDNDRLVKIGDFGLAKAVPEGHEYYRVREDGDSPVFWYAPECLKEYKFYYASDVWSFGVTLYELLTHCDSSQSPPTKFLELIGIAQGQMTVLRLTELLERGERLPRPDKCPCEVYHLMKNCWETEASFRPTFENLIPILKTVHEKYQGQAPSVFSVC

T1 sequence (O60674 812-1132): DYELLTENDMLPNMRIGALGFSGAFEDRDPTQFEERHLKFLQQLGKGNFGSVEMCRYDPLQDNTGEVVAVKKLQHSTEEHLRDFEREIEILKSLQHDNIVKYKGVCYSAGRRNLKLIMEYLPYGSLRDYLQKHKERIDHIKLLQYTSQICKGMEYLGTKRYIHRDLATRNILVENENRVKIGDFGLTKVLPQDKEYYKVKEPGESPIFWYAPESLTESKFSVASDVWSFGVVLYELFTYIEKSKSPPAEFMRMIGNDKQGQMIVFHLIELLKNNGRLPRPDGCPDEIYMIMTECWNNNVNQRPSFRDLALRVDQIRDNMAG
T2 sequence (P52333 783-1124): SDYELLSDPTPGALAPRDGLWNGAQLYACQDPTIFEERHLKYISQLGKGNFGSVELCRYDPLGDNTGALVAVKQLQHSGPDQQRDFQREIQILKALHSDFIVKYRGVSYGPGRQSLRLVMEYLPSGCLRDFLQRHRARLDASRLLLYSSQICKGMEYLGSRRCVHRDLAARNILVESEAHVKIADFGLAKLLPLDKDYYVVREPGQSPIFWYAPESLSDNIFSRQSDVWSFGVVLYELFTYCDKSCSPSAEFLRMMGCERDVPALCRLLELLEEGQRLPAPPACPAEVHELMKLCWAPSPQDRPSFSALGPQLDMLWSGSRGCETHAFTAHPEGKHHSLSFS

Ki (JAK2) [nM]	Ki (JAK3) [nM]	Ki (TYK2) [nM]	Compound
35	162	143	N#CCC(=O)N1CCC(n2cnc3cnc4[nH]ccc4c32)CC1 [Example 33, 3-Oxo-3-[4-(6H-1,3,5,6-tetraaza-as-indacen-1-yl)-piperidin-1-yl]propionitrile]
26.1	692	165	O=C(c1ccccc1)N1CCC(n2cnc3cnc4[nH]ccc4c32)CC1 [Example 35, Phenyl-[4-(6H-1,3,5,6-tetraaza-as-indacen-1-yl)-piperidin-1-yl]methanone]
242	1620	1190	CN(C)CC(=O)N1CCC(n2cnc3cnc4[nH]ccc4c32)CC1 [Example 36, 2-Dimethylamino-1-[4-(6H-1,3,5,6-tetraaza-as-indacen-1-yl)-piperidin-1-yl]ethanone]
3.15	4.14	56	c1ncc(CN2CCC(n3cnc4cnc5[nH]ccc5c43)CC2)cn1 [Example 52, 1-(1-Pyrimidin-5-ylmethyl-piperidin-4-yl)-1,6-dihydro-1,3,5,6-tetraaza-as-indacene]
2.99	84.1	18.7	CS(=O)(=O)N1CCC(n2cnc3cnc4[nH]ccc4c32)CC1 [Example 54, 1-(1-Methanesulfonyl-piperidin-4-yl)-1,6-dihydro-1,3,5,6-tetraaza-as-indacene]
6.59	334	31	O=S(=O)(c1ccccc1)N1CCC(n2cnc3cnc4[nH]ccc4c32)CC1 [Example 55, 1-(1-Benzenesulfonyl-piperidin-4-yl)-1,6-dihydro-1,3,5,6-tetraaza-as-indacene]
1	16.4	3.57	N#CCCN1CCC(n2cnc3cnc4[nH]ccc4c32)CC1 [Example 58, 3-[4-(6H-1,3,5,6-Tetraaza-as-indacen-1-yl)-piperidin-1-yl]propionitrile]
137	1120	436	CN1CCC[C@H]1C(=O)N1CCC(n2cnc3cnc4[nH]ccc4c32)CC1 [Example 78, ((S)-1-Methyl-pyrrolidin-2-yl)-[4-(6H-1,3,5,6-tetraaza-as-indacen-1-yl)-piperidin-1-yl]methanone]
51	1230	187	CC(C)CC(=O)N1CCC(n2cnc3cnc4[nH]ccc4c32)CC1 [Example 83, 3-Methyl-1-[4-(6H-1,3.5,6-tetraaza-as-indacen-1-yl)-piperidin-1-yl]-butan-1-one]
19.7	115	90	N#Cc1ccnc(N2CCC(n3cnc4cnc5[nH]ccc5c43)CC2)c1 [Example 96, 4-(6H-1,3,5,6-Tetraaza-as-indacen-1-yl)-3,4,5,6-tetrahydro-2H-[1,2′]bipyridinyl-4′-carbonitrile]
3.53	23.1	16.4	CS(=O)(=O)N[C@H]1CC[C@H](n2cnc3cnc4[nH]ccc4c32)CC1 [Example 105, Trans N-[4-(6H-1,3,5,6-tetraaza-as-indacen-1-yl)-cyclohexyl]-methanesulfonamide]
20	132	216	CC(C)(C)OC(=O)N[C@H]1CC[C@H](n2cnc3cnc4[nH]ccc4c32)CC1 [Example 107, Trans [4-(6H-1,3,5,6-tetraaza-as-indacen-1-yl)-cyclohexyl]-carbamic acid tert-butyl ester]
24.6	35	75.2	N[C@H]1CC[C@H](n2cnc3cnc4[nH]ccc4c32)CC1 [Example 108, Trans 4-(6H-1,3,5,6-tetraaza-as-indacen-1-yl)-cyclohexylamine]
4.21	32.8	62.4	CC(C)(C)OC(=O)N[C@@H]1CC[C@@H](n2cnc3cnc4[nH]ccc4c32)C1 [Example 134, [(1R,3R)-3-(6H-1,2,3,5,6-Tetraaza-as-indacen-1-yl)-cyclopentyl]-carbamic acid tert-butyl ester]
20.3	90.6	161	CC(C)(C)OC(=O)N[C@@H]1CC[C@H](n2cnc3cnc4[nH]ccc4c32)C1 [Example 135, [(1R,3S)-3-(6H-1,2,3,5,6-Tetraaza-as-indacen-1-yl)-cyclopentyl]-carbamic acid tert-butyl ester]
18.3	291	147	CC(C)(C)OC(=O)N[C@H]1CC[C@@H](n2cnc3cnc4[nH]ccc4c32)C1 [Example 136, [(1S,3R)-3-(6H-1,2,3,5,6-Tetraaza-as-indacen-1-yl)-cyclopentyl]-carbamic acid tert-butyl ester]
7.03	182	51.2	COC(=O)N(C)[C@H]1CC[C@H](n2cnc3cnc4[nH]ccc4c32)CC1 [Example 143, Trans Methyl-[4-(6H-1,2,3,5,6-tetraaza-as-indacen-1-yl)-cyclohexyl]-carbamic acid methyl ester]

Ki (JAK2) [nM]	Ki (JAK3) [nM]	Ki (TYK2) [nM]	Compound
4.6	38.1	19.2	FC(F)(F)CN1CCC(n2cnc3cnc4[nH]ccc4c32)CC1 [Example 175, 1-[1-(2,2,2-Trifluoro-ethyl)-piperidin-4-yl]-1,6-dihydro-1,2,3,5,6-tetraaza-as-indacene]
45.4	75.1	19.3	CS(=O)(=O)NCc1nc2cnc3[nH]ccc3c2n1C1CCCCC1 [Example 200, N-(1-Cyclohexyl-1,6-dihydro-1,2,3,5,6-tetraaza-as-indacen-2-ylmethyl)-methanesulfonamide]
44.6	60.3	831	CS(=O)(=O)NCc1nc2cnc3[nH]ccc3c2n1C1CCN(Cc2ccccc2)CC1 [Example 202, N-[1-(1-Benzyl-piperidin-4-yl)-1,6-dihydro-1,2,3,5,6-tetraaza-as-indacen-2-ylmethyl]-methanesulfonamide]
812	3050	565	CS(=O)(=O)NCc1nc2cnc3[nH]ccc3c2n1C1CCNCC1 [Example 206, N-(1-Piperidin-4-yl-1,6-dihydro-1,2,3,5,6-tetraaza-as-indacen-2-ylmethyl)-methanesulfonamide]
43.1	171	151	CS(=O)(=O)NCc1nc2cnc3[nH]ccc3c2n1C1CCN(CCC#N)CC1 [Example 208, N-{1-[1-(2-Cyano-ethyl)-piperidin-4-yl]-1,6-dihydro-1,2,3,5,6-tetraaza-as-indacen-2-ylmethyl}-methanesulfonamide]
11.2	89	37.3	N#Cc1cccc(CN[C@H]2CC[C@H](n3cnc4cnc5[nH]ccc5c43)CC2)c1 [Example 219, 3-{[4-(6H-1,3,5,6-Tetraaza-as-indacen-1-yl)-cyclohexylamino]-methyl}-benzonitrile]
285	1280	973	CN1CCC[C@@H]1C(=O)N1CCC(n2cnc3cnc4[nH]ccc4c32)CC1 [Example 252, ((R)-1-Methyl-pyrrolidin-2-yl)-[4-(6H-1,3,5,6-tetraaza-as-indacen-1-yl)-piperidin-1-yl]-methanone]
11.5	47.4	36.4	N#CCCN[C@H]1CC[C@H](n2cnc3cnc4[nH]ccc4c32)CC1 [Example 275, 3-[4-(6H-1,3,5,6-Tetraaza-as-indacen-1-yl)-cyclohexylamino]-propionitrile]
11.9	206	110	CC(C)(C)OC(=O)N[C@H]1CC[C@@H](n2cnc3cnc4[nH]ccc4c32)CC1 [Example 288, [4-(6H-1,3,5,6-Tetraaza-as-indacen-1-yl)-cyclohexyl]-carbamic acid tert-butyl ester]
80.2	79.5	107	N[C@H]1CC[C@@H](n2cnc3cnc4[nH]ccc4c32)CC1 [Example 289, 4-(6H-1,3,5,6-Tetraaza-as-indacen-1-yl)-cyclohexylamine]
14.1	91.6	59.8	COC(=O)N[C@H]1CC[C@H](n2cnc3cnc4[nH]ccc4c32)CC1 [Example 311, [4-(6H-1,3,5,6-Tetraaza-as-indacen-1-yl)-cyclohexyl]-carbamic acid methyl ester]
1100	976	1900	CC1(n2cnc3cnc4[nH]ccc4c32)CCNCC1 [Example 318, 1-(4-Methyl-piperidin-4-yl)-1,6-dihydro-1,3,5,6-tetraaza-as-indacene]
31.2	82.9	77.8	N#CCCN[C@H]1CC[C@@H](n2cnc3cnc4[nH]ccc4c32)CC1 [Example 319, 3-[4-(6H-1,3,5,6-Tetraaza-as-indacen-1-yl)-cyclohexylamino]-propionitrile]
9.47	56.1	38.5	CS(=O)(=O)N[C@H]1CC[C@@H](n2cnc3cnc4[nH]ccc4c32)CC1 [Example 321, N-[4-(6H-1,3,5,6-Tetraaza-as-indacen-1-yl)-cyclohexyl]-methanesulfonamide]
25.5	84.8	426	CC1(n2cnc3cnc4[nH]ccc4c32)CCN(Cc2cncnc2)CC1 [Example 322, 1-(4-Methyl-1-pyrimidin-5-ylmethyl-piperidin-4-yl)-1,6-dihydro-1,3,5,6-tetraaza-as-indacene]
122	269	271	CC1(n2cnc3cnc4[nH]ccc4c32)CCN(CCC#N)CC1 [Example 330, 3-[4-Methyl-4-(6H-1,3,5,6-tetraaza-as-indacen-1-yl)-piperidin-1-yl]-propionitrile]

From patent publication US8461328B2, “Tricyclic heterocyclic compounds, compositions and methods of use thereof” (Genentech, Inc., priority 2010, dated 2013)
